Measured values from US11079398B2, “Method for measurement of peptidic degradation products of a proteolytic cascade in blood samples” (ATTOQUANT DIAGNOSTICS GMBH, priority 2012, dated 2021).

Tests used:
[1] = system: renin-angiotensin system (RAS); experiment: RSSE-Fingerprinting: blood incubated at 37° C. with added agents, LC-MS/MS quantification of angiotensin peptides; type: biochemical, human; settings: for Ang 1-8 steady state equilibrium level compared to control / Ang 1-10 steady state equilibrium level compared to control: heparinised blood, agent added prior to incubation at 37° C., 2 h or 4 h
Description: Blood samples were collected and anti-coagulated with standardised heparin tubes (BD). As indicated in FIGS. 3A-3C, plasma separation has been done for the respective samples before the incubation to reach steady state equilibrium.
Following plasma separation by centrifugation at 3000 rcf for 10 minutes at 4° C., […] of plasma was applied onto an activated and equilibrated SEP-PAK™ C18 cartridge. Sample matrix components were removed by washing three times with 1 ml water. Bound analytes were then eluted with 1 ml of methanol. Eluates were evaporated to dryness and reconstituted in 10% acetonitril/90% water supplemented with 0.1% formic acid followed by subjection to LC-MS/MS analysis.
A vacuum manifold has been used for sample processing. • 1. Activation: EtOH abs. • 2. Equilibration: 2×1 ml H2O • 3. Loading: 0.2-1 ml stabilised plasma • 4. Washing: 3×1 ml H2O • 5. Elution: 1 ml MeOH Quantification and Signal Integration
MRM chromatograms were integrated using Analyst 1.5.1 software provided by Applied Biosystems. The threshold for the quantification limit was set at a signal-to-noise ratio of 10. Integration signals not reaching this ratio were set to zero. Analyte signals were related to internal standard signals and concentration was calculated from initially spiked amounts of internal standards.

ACE2 = ACE2 (Homo sapiens, UniProt Q9BYF1); settings: artificial matrix, vast excess of substrates; cited from earlier work
Chain of ACE2 (Q9BYF1 18-805): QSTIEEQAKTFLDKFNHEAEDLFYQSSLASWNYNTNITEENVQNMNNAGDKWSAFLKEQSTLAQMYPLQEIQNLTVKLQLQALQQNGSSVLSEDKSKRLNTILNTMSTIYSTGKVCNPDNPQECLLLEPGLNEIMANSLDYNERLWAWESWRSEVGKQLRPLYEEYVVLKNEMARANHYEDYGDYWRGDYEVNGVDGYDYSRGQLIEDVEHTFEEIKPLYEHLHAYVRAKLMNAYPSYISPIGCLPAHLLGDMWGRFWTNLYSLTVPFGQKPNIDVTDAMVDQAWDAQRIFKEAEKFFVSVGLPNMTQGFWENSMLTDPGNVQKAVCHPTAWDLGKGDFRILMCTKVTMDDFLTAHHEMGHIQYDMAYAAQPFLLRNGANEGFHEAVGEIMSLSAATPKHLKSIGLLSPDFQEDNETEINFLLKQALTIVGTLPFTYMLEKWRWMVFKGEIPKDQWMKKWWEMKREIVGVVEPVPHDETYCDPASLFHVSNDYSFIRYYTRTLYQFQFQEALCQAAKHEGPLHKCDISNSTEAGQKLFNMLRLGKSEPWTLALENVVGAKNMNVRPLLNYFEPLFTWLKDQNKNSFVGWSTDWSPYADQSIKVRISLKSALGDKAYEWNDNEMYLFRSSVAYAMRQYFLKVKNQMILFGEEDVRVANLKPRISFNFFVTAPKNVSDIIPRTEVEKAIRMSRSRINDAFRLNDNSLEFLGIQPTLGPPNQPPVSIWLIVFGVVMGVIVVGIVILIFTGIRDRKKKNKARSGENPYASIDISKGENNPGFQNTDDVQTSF

| Compound | Ang 1-8 steady state equilibrium level compared to control [1] | Ang 1-10 steady state equilibrium level compared to control [1] | also measured |
| --- | --- | --- | --- |
| CC(C)C[C@@H](N)[C@H](O)C(=O)N[C@H](C(=O)N[C@H](C(=O)N[C@@H](CC(=O)O)C(=O)O)C(C)C)C(C)C [Amastatin] | massively increase |  | steady state equilibrium Ang 1-10 level in the presence of ACE2 (ACE2 mediated Ang 1-9 production) ([1]; FIG. 2C1/2C3, 2 h incubation): further increases |
| NCCCC[C@H](N[C@@H](CCc1ccccc1)C(=O)O)C(=O)N1CCC[C@H]1C(=O)O [Lisinopril] | decreased | increased |  |
| ACE2: recombinant soluble human ACE2 produced by Apeiron Biologics |  |  | shift of RSSE-Fingerprint ([1]; 5 μg/ml enzyme added prior to incubation): shifted as expected |
| C[C@H](CS)C(=O)N1CCC[C@H]1C(=O)O [Captopril] | decreased | increased |  |
| angiotensin II (DRVYIHPF; Angiotensin-2; UniProt P01019 25-32, looked up) [Ang 1-8, angiotensin peptide, ACE2 substrate] |  |  | maximal ACE2 conversion rate for Ang 1-8 to Ang 1-7 relative to conversion rate for Ang 1-10 to Ang 1-9 (ACE2): 65 times |
